Data as given in patent publication US20230174507A1, “IMIDAZOLE 3-OXIDE DERIVATIVE BASED ACSS2 INHIBITORS AND METHODS OF USE THEREOF” (METABOMED LTD., priority 2020, published 2023).

How the values were obtained:
[1] = molecular target: T1, human ACSS2 protein (Homo sapiens, UniProt Q9NR19); assay: ACSS2 cell-free activity assay (pyrophosphatase-coupled, Biomol green); conditions: 10 nM human ACSS2, 90 minutes at 37 C, absorbance at 620 nm; read-out: ACSS2 Biochemical IC50
T1 construct: purchased OriGene Technologies, Inc
Method: ACSS2 Cell-Free Activity Assay (Cell-Free IC50)
(§1) The assay is based on a coupling reaction with Pyrophosphatase: ACSS2 is converting ATP+CoA+Acetate=>AMP+pyrophosphate+Acetyl-CoA (Ac-CoA). Pyrophosphatase converts pyrophosphate, a product of the ACSS2 reaction, to phosphate which can be detected by measuring the absorbance at 620 nm after incubation with the Biomol green reagent (Enzo life Science, BML-AK111).
(§2) Cell Free IC50 Determination:
(§3) 10 nM of human ACSS2 protein (OriGene Technologies, Inc) was incubated for 90 minutes at 37 C with various compounds' concentrations in a reaction containing 50 mM Hepes pH 7.5, 10 mM DTT, 90 mM KCl, 0.006% Tween-20, 0.1 mg/ml BSA, 2 mM MgCl2, 10 μM CoA, 5 mM NaAc, 300 μM ATP and 0.5 U/ml Pyrophosphatase (Sigma). At the end of the reaction, Biomol Green was added for 30 minutes at RT and the activity was measured by reading the absorbance at 620 nm. IC50 values were calculated using non-linear regression curve fit with 0% and 100% constrains (CDD Vault, Collaborative Drug Discovery, Inc.).

[2] = molecular target: T2, human ACSS1 protein (Homo sapiens, UniProt Q9NUB1); assay: ACSS1 cell-free activity assay (pyrophosphatase-coupled, Biomol green); assay type: biochemical; conditions: 5 nM human ACSS1, 30 minutes at room temperature, absorbance at 620 nm
T2 construct: purchased MyBioSource
T2 sequence (Q9NUB1 38-689): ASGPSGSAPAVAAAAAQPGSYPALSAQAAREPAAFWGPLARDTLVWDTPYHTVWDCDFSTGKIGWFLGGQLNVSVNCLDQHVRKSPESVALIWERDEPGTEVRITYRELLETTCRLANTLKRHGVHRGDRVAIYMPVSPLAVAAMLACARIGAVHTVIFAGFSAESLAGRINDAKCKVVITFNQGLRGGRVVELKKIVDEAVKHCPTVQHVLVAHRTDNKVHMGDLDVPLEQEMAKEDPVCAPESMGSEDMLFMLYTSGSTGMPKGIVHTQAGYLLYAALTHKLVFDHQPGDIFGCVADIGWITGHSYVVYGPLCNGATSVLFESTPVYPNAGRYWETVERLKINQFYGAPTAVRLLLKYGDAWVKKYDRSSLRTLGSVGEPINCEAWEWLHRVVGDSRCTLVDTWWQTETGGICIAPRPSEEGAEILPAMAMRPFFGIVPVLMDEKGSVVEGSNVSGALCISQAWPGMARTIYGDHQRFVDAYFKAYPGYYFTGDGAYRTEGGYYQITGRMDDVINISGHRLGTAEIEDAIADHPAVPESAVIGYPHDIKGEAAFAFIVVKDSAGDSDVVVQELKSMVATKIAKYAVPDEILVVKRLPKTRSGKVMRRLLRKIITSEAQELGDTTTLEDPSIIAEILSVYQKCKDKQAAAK
Method: ACSS1 Cell-Free Activity Assay (Cell-Free IC50)
as §1, with “ACSS1” for “ACSS2”
as §2
as §3, with “5 nM” for “10 nM”, “human ACSS1” for “human ACSS2”, “protein (MyBioSource)” for “protein (OriGene Technologies, Inc)”, “for 30” for “for 90”, “at room temperature” for “at 37 C”, “MgCl2, 15” for “MgCl2, 10”

T1 sequence (Q9NR19 whole entry): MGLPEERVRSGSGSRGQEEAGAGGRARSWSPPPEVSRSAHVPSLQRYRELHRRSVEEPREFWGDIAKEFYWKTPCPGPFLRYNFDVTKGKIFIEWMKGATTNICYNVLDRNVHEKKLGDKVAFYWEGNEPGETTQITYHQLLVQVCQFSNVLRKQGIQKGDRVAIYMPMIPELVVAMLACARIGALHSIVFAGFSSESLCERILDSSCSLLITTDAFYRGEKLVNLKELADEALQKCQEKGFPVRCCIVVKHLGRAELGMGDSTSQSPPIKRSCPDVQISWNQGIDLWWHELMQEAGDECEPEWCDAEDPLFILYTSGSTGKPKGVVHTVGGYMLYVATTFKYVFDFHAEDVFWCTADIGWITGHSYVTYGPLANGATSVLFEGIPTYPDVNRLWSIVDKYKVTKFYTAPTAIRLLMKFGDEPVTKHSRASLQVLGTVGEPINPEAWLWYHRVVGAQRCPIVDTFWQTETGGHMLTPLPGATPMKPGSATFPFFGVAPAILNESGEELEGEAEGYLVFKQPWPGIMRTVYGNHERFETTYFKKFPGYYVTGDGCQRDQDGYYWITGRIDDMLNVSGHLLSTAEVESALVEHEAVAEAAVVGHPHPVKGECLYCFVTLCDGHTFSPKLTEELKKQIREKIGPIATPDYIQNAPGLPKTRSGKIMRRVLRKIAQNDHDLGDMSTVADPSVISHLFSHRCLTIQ

Row | IC50 [1] | ACSS1 Biochemical IC50 (nM) [2] | SMILES
1 | > 30 nM | Inactive | CCC(F)(F)c1cccc(NC(=O)c2c(C)n(COP(=O)(O)O)c(-c3ccc(OC)c(-c4c(C)cccc4C)c3)[n+]2[O-])c1 [Compound 193, 4-((3-(1,1-difluoropropyl)phenyl)carbamoyl)-2-(6-methoxy-2′,6′-dimethyl-[1,1′-biphenyl]-3-yl)-5-methyl-1-((phosphonooxy)methyl)-1H-imidazole 3-oxide]
2 | > 30 nM | Inactive | CCC(F)(F)c1cccc(NC(=O)c2c(C)[nH]c(-c3ccc(OC)c(C4CCCCC4)c3)[n+]2[O-])c1 [Compound 145, 2-(3-cyclohexyl-4-methoxyphenyl)-4-((3-(1,1-difluoropropyl)phenyl)carbamoyl)-5-methyl-1H-imidazole 3-oxide]
3 | < 1 nM | Inactive | CCC(F)(F)c1cccc(NC(=O)c2c(C)[nH]c(-c3ccc(OC)c(N4CCNCC4)c3)[n+]2[O-])c1 [Compound 164, 4-((3-(1,1-difluoropropyl)phenyl)carbamoyl)-2-(4-methoxy-3-(piperazin-1-yl)phenyl)-5-methyl-1H-imidazole 3-oxide]
4 | 1 to 30 nM | Inactive | COc1cc(F)c(-c2[nH]c(C)c(C(=O)Nc3cccc(C(F)(F)F)c3)[n+]2[O-])nc1-c1c(F)cccc1F [Compound 208, 2-(6-(2,6-difluorophenyl)-3-fluoro-5-methoxypyridin-2-yl)-5-methyl-4-((3-(trifluoromethyl)phenyl)carbamoyl)-1H-imidazole 3-oxide]
5 | 1 to 30 nM | Inactive | C/C=C\c1cc(C)c(-c2cc(-c3[nH]c(C)c(C(=O)Nc4cccc(C(F)(F)CC)c4)[n+]3[O-])ccc2OC)c(C)c1 [Compound 160, (Z)-4-((3-(1,1-difluoropropyl)phenyl)carbamoyl)-2-(6-methoxy-2′,6′-dimethyl-4′-(prop-1-en-1-yl)-[1,1′-biphenyl]-3-yl)-5-methyl-1H-imidazole 3-oxide]
6 | > 30 nM | Inactive | COc1ccc(-c2[nH]c(C)c(C(=O)Nc3cccc(C(=O)N4CCCC4)c3)[n+]2[O-])cc1-c1c(C)cccc1C [Compound 138, 2-[3-(2,6-dimethylphenyl)-4-methoxy-phenyl]-5-methyl-3-oxido-N-[3-(pyrrolidine-1-carbonyl)phenyl]-1H-imidazol-3-ium-4-carboxamide]
7 | > 30 nM | Inactive | COc1ccc(-c2[nH]c(C)c(C(=O)Nc3cccc(C(=O)N4CCN(C)CC4)c3)[n+]2[O-])cc1-c1c(C)cccc1C [Compound 163, 2-[3-(2,6-dimethylphenyl)-4-methoxy-phenyl]-5-methyl-N-[3-(4-methylpiperazine-1-carbonyl)phenyl]-3-oxido-1H-imidazol-3-ium-4-carboxamide]
8 | > 30 nM | Inactive | COc1ccc(-c2[nH]c(C)c(C(=O)Nc3cccc(C(F)(F)C4(C)CC4)c3)[n+]2[O-])cc1-c1c(C)cccc1C [Compound 151, 4-((3-(difluoro(1-methylcyclopropyl)methyl)phenyl)carbamoyl)-2-(6-methoxy-2′,6′-dimethyl-[1,1′-biphenyl]-3-yl)-5-methyl-1H-imidazole 3-oxide]
9 | > 30 nM | Inactive | COc1ccc(-c2[nH]c(C)c(C(=O)Nc3cccc(C(=O)N4CCOCC4)c3)[n+]2[O-])cc1-c1c(C)cccc1C [Compound 148, 2-(6-methoxy-2′,6′-dimethyl-[1,1′-biphenyl]-3-yl)-5-methyl-4-((3-(morpholine-4-carbonyl)phenyl)carbamoyl)-1H-imidazole 3-oxide]
10 | > 30 nM | Inactive | COCCN(C)C(=O)c1cccc(NC(=O)c2c(C)[nH]c(-c3ccc(OC)c(-c4c(C)cccc4C)c3)[n+]2[O-])c1 [Compound 141, 2-(6-methoxy-2′,6′-dimethyl-[1,1′-biphenyl]-3-yl)-4-((3-((2-methoxyethyl)(methyl)carbamoyl)phenyl)carbamoyl)-5-methyl-1H-imidazole 3-oxide]
11 | 1 to 30 nM | Inactive | COc1cc(F)c(-c2[nH]c(C)c(C(=O)Nc3cccc(C(F)(F)F)c3)[n+]2[O-])nc1-c1c(C)cc(F)cc1C [Compound 209, 2-(3-fluoro-6-(4-fluoro-2,6-dimethylphenyl)-5-methoxypyridin-2-yl)-5-methyl-4-((3-(trifluoromethyl)phenyl)carbamoyl)-1H-imidazole 3-oxide]
12 | 1 to 30 nM | Inactive | CCC(F)(F)c1cccc(NC(=O)c2c(C)[nH]c(-c3ccc(OC)c(-c4c(C)cc(C)cc4C)c3)[n+]2[O-])c1 [Compound 152, 4-((3-(1,1-difluoropropyl)phenyl)carbamoyl)-2-(6-methoxy-2′,4′,6′-trimethyl-[1,1′-biphenyl]-3-yl)-5-methyl-1H-imidazole 3-oxide]
13 | 1 to 30 nM | Inactive | Cc1cccc(C)c1-c1cc(-c2c(C)cccc2C)cc(-c2[nH]c(C)c(C(=O)Nc3cccc(C(F)(F)C4CC4)c3)[n+]2[O-])c1 [Compound 132, 4-((3-(cyclopropyldifluoromethyl)phenyl)carbamoyl)-5-methyl-2-(2,2″,6,6″-tetramethyl-[1,1′:3′,1″-terphenyl]-5′-yl)-1H-imidazole 3-oxide]
14 | 1 to 30 nM | Inactive | Cc1cccc(C)c1-c1cc(-c2[nH]c(C)c(C(=O)Nc3cccc(C(F)(F)C4CC4)c3)[n+]2[O-])cc(C(C)C)c1 [Compound 134, 4-((3-(cyclopropyldifluoromethyl)phenyl)carbamoyl)-2-(5-isopropyl-2′,6′-dimethyl-[1,1′-biphenyl]-3-yl)-5-methyl-1H-imidazole 3-oxide]
15 | < 1 nM | Inactive | CCC(F)(F)c1cccc(NC(=O)c2c(C)[nH]c(-c3ccc(OC)c(N4CCN(C)CC4)c3)[n+]2[O-])c1 [Compound 165, 4-((3-(1,1-difluoropropyl)phenyl)carbamoyl)-2-(4-methoxy-3-(4-methylpiperazin-1-yl)phenyl)-5-methyl-1H-imidazole 3-oxide]
16 | > 30 nM | Inactive | CCC(F)(F)c1cccc(NC(=O)c2c(C)[nH]c(-c3ccc(OC)c(-c4c(C)cc(CCc5ccccc5)cc4C)c3)[n+]2[O-])c1 [Compound 154, 4-((3-(1,1-difluoropropyl)phenyl)carbamoyl)-2-(6-methoxy-2′,6′-dimethyl-4′-phenethyl-[1,1′-biphenyl]-3-yl)-5-methyl-1H-imidazole 3-oxide]
17 | 1 to 30 nM | Inactive | CC#Cc1cc(C)c(-c2cc(-c3[nH]c(C)c(C(=O)Nc4cccc(C(F)(F)CC)c4)[n+]3[O-])ccc2OC)c(C)c1 [Compound 156, 4-((3-(1,1-difluoropropyl)phenyl)carbamoyl)-2-(6-methoxy-2′,6′-dimethyl-4′-(prop-1-yn-1-yl)-[1,1′-biphenyl]-3-yl)-5-methyl-1H-imidazole 3-oxide]

Row | SMILES | IC50 [1] | ACSS1 Biochemical IC50 (nM) [2]
18 | CCC(F)(F)c1cccc(NC(=O)c2c(C)n(COP(=O)(O)OC(C)(C)C)c(-c3ccc(OC)c(-c4c(C)cccc4C)c3)[n+]2[O-])c1 [Compound 188, 1-(((tert-butoxy(hydroxy)phosphoryl)oxy)methyl)-4-((3-(1,1-difluoropropyl)phenyl)carbamoyl)-2-(6-methoxy-2′,6′-dimethyl-[1,1′-biphenyl]-3-yl)-5-methyl-1H-imidazole 3-oxide] | 1 to 30 nM | Inactive
